ChEMBL document CHEMBL4507291 (2021)

Key:
[1] = target: T1, Ephrin type-B receptor 4 (Homo sapiens) (UniProt P54760)
T1 sequence (whole entry): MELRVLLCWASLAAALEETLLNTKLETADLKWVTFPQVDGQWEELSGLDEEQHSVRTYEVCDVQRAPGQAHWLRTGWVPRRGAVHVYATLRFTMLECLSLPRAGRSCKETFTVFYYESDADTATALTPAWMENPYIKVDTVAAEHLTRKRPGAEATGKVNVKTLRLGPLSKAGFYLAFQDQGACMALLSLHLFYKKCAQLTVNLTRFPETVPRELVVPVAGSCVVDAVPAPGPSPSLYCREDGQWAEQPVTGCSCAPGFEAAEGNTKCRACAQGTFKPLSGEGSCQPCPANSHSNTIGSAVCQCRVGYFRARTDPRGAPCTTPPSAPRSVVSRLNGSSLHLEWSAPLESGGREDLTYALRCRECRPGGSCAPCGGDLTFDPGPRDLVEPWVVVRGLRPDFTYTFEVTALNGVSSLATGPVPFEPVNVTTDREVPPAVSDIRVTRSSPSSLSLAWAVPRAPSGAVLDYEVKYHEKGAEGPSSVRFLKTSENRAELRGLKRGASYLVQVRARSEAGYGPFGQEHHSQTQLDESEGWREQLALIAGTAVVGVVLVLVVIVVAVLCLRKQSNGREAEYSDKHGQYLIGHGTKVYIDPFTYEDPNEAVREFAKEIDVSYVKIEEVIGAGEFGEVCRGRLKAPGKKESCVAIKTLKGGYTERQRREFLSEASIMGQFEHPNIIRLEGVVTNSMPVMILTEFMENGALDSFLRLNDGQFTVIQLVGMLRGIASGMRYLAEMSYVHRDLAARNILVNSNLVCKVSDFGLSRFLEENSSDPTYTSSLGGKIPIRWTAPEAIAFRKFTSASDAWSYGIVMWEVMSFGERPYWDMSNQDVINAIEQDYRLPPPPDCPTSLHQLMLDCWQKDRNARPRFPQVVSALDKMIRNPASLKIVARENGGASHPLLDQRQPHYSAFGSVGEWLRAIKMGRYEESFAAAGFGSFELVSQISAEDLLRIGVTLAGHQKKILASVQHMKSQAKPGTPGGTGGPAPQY

[2] = target: Serine/threonine-protein kinase PAK 4 (Homo sapiens) (UniProt O96013)
[3] = target: Mitogen-activated protein kinase 8 (Homo sapiens) (UniProt P45983)
[4] = target: Eukaryotic translation initiation factor 2-alpha kinase 1 (Homo sapiens) (UniProt Q9BQI3)
[5] = target: TRAF2 and NCK-interacting protein kinase (Homo sapiens) (UniProt Q9UKE5)
[6] = target: Casein kinase I isoform delta (Homo sapiens) (UniProt P48730)
[7] = target: T2, Serine/threonine-protein kinase D1 (Homo sapiens) (UniProt Q15139)
T2 sequence (whole entry): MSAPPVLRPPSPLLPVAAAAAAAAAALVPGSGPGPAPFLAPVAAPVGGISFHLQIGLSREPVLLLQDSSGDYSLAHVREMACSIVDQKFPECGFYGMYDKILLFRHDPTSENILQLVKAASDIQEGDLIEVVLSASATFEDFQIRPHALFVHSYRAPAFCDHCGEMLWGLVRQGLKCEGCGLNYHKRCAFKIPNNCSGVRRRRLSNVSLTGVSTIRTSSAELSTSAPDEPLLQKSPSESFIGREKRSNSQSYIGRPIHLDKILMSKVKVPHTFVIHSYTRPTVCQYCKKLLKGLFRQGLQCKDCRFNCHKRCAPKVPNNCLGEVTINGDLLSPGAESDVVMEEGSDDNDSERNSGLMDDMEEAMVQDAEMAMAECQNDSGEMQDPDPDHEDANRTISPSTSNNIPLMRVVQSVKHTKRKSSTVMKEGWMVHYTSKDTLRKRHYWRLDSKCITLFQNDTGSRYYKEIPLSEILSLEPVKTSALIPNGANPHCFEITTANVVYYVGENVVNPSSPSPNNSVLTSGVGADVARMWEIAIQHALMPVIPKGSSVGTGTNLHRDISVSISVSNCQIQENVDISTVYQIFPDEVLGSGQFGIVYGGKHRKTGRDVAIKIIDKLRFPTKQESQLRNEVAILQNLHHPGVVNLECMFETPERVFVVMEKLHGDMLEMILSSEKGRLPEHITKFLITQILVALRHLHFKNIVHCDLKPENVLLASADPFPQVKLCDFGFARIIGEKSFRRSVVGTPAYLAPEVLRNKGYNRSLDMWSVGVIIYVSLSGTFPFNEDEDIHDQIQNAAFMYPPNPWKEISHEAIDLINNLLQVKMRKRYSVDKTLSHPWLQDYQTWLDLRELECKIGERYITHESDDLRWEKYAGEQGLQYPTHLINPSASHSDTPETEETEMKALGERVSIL

[8] = target: Mitogen-activated protein kinase kinase kinase 9 (Homo sapiens) (UniProt P80192)
[9] = target: Phosphatidylinositol 3-kinase catalytic subunit type 3 (Homo sapiens) (UniProt Q8NEB9)
[10] = target: T3, Alpha-2C adrenergic receptor (Homo sapiens) (UniProt P18825); settings: Compound concentration 10.0 uM
T3 sequence (whole entry): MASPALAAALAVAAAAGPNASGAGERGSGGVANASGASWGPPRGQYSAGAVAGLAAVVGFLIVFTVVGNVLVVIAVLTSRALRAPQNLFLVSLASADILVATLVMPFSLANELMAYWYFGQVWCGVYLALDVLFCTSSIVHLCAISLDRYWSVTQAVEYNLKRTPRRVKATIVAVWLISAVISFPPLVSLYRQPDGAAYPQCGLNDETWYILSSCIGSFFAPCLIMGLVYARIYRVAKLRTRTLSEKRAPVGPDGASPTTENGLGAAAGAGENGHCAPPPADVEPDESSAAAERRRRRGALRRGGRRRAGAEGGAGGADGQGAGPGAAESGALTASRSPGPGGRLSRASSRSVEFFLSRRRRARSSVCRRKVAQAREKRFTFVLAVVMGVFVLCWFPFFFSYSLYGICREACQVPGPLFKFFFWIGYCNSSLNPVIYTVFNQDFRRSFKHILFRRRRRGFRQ

[11] = tested on: Tyrosine-protein kinase ABL1 (Homo sapiens), P00519 [H396P]
[12] = target: Homeodomain-interacting protein kinase 3 (Homo sapiens) (UniProt Q9H422)
[13] = target: Serine/threonine-protein kinase DCLK1 (Homo sapiens) (UniProt O15075)
[14] = Compound concentration 100.0 nM
[15] = Compound concentration 1000.0 nM

Sequence of Mitogen-activated protein kinase 8 (Homo sapiens) (P45983 whole entry): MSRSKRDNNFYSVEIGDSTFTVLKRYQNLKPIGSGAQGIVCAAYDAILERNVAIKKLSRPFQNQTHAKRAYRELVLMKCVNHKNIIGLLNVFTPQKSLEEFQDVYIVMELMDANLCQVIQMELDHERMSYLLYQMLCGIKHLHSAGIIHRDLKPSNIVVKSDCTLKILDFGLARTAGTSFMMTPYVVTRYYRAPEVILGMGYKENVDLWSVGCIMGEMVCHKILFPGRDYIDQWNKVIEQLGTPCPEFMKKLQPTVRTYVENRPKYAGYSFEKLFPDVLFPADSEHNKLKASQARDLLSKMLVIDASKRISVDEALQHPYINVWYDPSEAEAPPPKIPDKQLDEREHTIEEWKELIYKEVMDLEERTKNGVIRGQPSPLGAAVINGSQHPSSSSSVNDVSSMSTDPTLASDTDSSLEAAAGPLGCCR
Sequence of Homeodomain-interacting protein kinase 3 (Homo sapiens) (Q9H422 whole entry, looked up): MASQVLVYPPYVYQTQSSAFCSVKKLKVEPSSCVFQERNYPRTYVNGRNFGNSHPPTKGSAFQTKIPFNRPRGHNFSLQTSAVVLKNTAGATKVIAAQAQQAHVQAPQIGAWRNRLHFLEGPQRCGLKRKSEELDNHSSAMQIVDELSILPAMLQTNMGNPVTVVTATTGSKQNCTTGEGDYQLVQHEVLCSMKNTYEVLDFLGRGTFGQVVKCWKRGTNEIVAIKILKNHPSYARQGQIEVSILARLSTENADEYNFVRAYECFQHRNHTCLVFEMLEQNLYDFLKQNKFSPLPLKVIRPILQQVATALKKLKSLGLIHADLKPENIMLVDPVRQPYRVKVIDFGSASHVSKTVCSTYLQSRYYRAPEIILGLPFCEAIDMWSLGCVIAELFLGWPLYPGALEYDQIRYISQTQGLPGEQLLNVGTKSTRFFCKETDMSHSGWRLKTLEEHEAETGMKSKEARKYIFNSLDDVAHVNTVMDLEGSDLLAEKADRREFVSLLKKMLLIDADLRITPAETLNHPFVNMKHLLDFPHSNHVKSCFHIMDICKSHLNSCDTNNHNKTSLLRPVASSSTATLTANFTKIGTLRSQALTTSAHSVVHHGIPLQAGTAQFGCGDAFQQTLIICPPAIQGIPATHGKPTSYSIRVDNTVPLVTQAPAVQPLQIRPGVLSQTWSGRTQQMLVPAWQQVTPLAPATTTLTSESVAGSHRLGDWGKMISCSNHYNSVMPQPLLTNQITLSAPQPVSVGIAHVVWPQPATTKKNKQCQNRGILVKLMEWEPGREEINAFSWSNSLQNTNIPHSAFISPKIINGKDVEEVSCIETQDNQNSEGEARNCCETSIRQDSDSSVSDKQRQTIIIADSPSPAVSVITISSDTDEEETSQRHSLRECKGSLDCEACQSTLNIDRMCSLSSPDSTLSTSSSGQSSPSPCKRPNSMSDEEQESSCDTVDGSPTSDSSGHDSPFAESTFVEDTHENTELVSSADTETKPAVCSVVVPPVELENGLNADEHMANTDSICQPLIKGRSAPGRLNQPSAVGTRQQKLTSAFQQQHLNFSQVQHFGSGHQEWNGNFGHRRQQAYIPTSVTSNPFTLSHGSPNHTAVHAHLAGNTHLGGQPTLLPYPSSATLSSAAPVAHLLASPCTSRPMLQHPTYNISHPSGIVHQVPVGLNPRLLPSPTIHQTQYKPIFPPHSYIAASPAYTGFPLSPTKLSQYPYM
Sequence of TRAF2 and NCK-interacting protein kinase (Homo sapiens) (Q9UKE5 whole entry, looked up, canonical isoform): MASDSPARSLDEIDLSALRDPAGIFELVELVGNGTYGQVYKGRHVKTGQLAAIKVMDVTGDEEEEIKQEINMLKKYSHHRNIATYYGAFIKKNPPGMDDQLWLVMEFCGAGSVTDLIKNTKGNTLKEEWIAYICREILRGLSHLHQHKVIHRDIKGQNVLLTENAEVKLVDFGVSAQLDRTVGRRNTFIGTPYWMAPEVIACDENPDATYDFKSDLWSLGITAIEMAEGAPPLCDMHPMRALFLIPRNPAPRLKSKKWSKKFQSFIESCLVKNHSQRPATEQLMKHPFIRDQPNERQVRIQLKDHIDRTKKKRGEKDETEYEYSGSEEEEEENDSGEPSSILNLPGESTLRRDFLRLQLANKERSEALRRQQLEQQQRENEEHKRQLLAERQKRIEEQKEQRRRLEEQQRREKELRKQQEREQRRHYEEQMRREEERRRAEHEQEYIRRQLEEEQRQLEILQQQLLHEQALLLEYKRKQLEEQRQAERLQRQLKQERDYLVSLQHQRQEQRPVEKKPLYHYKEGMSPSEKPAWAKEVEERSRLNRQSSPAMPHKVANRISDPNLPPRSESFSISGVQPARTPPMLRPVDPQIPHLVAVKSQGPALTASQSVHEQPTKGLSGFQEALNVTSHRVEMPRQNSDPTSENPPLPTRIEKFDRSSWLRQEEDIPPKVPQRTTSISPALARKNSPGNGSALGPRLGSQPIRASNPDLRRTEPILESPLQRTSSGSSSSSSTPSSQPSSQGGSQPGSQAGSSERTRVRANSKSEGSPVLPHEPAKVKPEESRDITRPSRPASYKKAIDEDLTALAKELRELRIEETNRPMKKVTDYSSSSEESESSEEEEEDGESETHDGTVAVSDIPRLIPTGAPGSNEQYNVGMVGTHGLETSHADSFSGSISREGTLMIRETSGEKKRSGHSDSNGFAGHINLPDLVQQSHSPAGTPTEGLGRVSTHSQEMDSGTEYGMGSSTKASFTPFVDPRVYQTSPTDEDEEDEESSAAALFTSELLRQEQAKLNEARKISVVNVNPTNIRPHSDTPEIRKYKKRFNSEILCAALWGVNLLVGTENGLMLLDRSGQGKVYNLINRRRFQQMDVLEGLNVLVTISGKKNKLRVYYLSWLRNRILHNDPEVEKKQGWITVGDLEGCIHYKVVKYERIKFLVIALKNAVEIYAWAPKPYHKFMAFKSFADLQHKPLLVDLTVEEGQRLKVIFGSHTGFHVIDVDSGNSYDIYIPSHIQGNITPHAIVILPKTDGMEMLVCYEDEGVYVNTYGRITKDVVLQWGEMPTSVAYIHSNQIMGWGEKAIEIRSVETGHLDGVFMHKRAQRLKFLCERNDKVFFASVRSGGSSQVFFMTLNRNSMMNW
Sequence of Phosphatidylinositol 3-kinase catalytic subunit type 3 (Homo sapiens) (Q8NEB9 whole entry): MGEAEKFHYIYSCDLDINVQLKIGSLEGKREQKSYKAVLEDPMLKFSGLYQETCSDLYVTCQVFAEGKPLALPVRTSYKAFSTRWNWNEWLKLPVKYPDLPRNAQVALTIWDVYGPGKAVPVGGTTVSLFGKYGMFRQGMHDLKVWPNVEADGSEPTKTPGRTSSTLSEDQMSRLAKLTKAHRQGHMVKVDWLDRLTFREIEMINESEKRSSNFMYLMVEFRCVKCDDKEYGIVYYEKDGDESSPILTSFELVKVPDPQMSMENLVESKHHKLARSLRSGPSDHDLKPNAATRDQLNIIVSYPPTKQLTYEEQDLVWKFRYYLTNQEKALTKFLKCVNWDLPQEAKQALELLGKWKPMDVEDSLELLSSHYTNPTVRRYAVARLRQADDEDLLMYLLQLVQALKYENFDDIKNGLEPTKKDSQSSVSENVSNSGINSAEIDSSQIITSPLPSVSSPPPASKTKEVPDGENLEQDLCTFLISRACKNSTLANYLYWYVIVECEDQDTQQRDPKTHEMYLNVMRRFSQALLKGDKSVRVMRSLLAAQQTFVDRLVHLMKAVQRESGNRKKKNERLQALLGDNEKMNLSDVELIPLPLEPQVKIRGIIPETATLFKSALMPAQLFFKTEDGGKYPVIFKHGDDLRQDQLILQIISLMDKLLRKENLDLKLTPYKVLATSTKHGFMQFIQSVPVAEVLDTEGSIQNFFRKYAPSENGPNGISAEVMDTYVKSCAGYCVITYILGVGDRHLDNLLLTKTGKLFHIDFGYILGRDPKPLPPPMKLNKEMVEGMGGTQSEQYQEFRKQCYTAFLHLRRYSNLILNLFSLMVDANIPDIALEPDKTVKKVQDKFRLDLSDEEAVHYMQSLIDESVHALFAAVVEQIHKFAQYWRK
Sequence of Serine/threonine-protein kinase DCLK1 (Homo sapiens) (O15075 whole entry): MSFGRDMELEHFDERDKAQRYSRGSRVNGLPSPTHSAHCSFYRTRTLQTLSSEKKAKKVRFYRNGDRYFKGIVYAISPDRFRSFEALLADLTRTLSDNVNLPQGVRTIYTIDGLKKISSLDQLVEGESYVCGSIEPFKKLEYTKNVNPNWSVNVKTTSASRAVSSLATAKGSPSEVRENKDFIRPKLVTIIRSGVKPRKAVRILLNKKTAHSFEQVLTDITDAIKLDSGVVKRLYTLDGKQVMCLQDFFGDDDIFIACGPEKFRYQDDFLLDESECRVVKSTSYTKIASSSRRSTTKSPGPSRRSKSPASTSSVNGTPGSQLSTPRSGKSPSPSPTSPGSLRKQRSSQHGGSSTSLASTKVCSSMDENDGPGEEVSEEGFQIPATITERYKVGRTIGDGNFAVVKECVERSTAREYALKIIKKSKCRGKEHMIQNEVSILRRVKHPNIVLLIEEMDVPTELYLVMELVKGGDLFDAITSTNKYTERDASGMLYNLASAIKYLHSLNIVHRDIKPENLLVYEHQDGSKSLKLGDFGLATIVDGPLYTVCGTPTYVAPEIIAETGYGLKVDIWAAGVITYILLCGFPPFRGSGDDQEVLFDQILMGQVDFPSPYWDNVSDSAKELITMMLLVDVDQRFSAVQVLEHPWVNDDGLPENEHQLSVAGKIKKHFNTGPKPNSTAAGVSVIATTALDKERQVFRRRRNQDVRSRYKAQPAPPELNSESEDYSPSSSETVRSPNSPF
Sequence of Casein kinase I isoform delta (Homo sapiens) (P48730 whole entry, looked up, canonical isoform): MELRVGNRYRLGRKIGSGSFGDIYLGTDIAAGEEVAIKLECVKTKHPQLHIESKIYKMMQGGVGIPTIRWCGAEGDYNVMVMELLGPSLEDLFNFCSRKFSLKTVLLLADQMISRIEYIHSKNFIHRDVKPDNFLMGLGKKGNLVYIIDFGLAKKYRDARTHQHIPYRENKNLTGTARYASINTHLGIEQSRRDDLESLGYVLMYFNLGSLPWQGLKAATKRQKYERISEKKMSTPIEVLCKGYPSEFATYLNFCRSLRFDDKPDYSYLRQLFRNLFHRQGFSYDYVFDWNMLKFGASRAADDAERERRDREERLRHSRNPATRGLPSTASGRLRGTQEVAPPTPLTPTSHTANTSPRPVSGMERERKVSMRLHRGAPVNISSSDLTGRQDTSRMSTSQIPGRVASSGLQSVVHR

C[C@@H]1CN(c2cc(-c3n[nH]c4ccc(OC5(C)CC5)cc34)ncn2)C[C@H](C)O1 [MLi-2]
inactive: residual activity [1, 14] 79% | residual activity [2, 14] 97% | residual activity [3, 14] 63% | residual activity [4, 14] 100% | residual activity [5, 14] 100% | residual activity [6, 14] 80% | residual activity [7, 14] 84% | residual activity [8, 14] 100% | residual activity [9, 14] 100% | inhibition [10] 7.85% | residual activity [11, 14] 96% | residual activity [12, 14] 73% | residual activity [13, 14] 81%

C[C@@H]1CN(c2cc(-c3nn(C)c4ccc(OC5(C)CC5)cc34)ncn2)C[C@H](C)O1 [MLi-2-NC]
inactive: residual activity [1, 15] 100% | residual activity [2, 15] 93% | residual activity [3, 15] 82% | residual activity [4, 15] 60% | residual activity [5, 15] 80% | residual activity [6, 15] 84% | residual activity [7, 15] 82% | residual activity [8, 15] 100% | residual activity [9, 15] 86% | inhibition [10] 15.1% | residual activity [11, 15] 75% | residual activity [12, 15] 91% | residual activity [13, 15] 64%
